The values that follow are results of earlier work, collected in patent publication US20220403162A1, “POLYURETHANE COMPOSITIONS SALTED WITH BISBIGUANIDE” (Lubrizol Advanced Materials, Inc., priority 2019, published 2022).

With `N=C(NCCCCCCNC(=N)NC(=N)Nc1ccc(Cl)cc1)NC(=N)Nc1ccc(Cl)cc1.O=C(O)[C@H](O)[C@@H](O)[C@H](O)[C@H](O)CO.O=C(O)[C@H](O)[C@@H](O)[C@H](O)[C@H](O)CO` [CHG, chlorhexidine digluconate], where the note is “The Merck Index”, the solubility in water entry was “at least 50%”.

In the case of `[H]/N=C(\N/C(=N/[H])NCCCCCCNC(=N)NC(=N)Nc1ccc(Cl)cc1)Nc1ccc(Cl)cc1` [Chlorhexidine, 1,6-bis(4-chloro-phenylbiguanido)hexane], for the setting “quoted from US 2004/0052831 A1”, the “solubility in water or alcohol” value was “not soluble”.
